Assay results published in patent publication US20220402950A1, “SUBSTITUTED BENZIMIDAZOLES AS PAD4 INHIBITORS” (BRISTOL-MYERS SQUIBB COMPANY, priority 2018, published 2022).
Like-named read-outs stand apart in the source and are kept apart here.

Target: human PAD4 (hPAD4) (Homo sapiens, UniProt Q9UM07)
Assay: RFMS Human PAD4 Functional Assay
Assay type: biochemical
Conditions: 5 nM hPAD4, 250 μM BAEE
Method in brief: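 RapidFire ESI-MS quantification, normalised to a modified-citrulline internal standard, after phenyl glyoxal (final 4 mM) derivatisation of the TCA-quenched reaction. The enzyme (10 nM) sat 30 min with compound (up to 50 μM final) before 500 μM BAEE (as added) started a 90 min, 37 °C reaction. Buffer: HEPES pH 7.5, 50 μM calcium, 5 μM TPEN.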

[1] = hPAD4 RFMS IC50, human PAD4, rapid-fire mass spectrum (RFMS) assay
[2] = human PAD4, rapid-fire mass spectrum (RFMS) assay, read-out: hPAD4 RFMS IC50

Sequence of human PAD4 (hPAD4) (Q9UM07 whole entry): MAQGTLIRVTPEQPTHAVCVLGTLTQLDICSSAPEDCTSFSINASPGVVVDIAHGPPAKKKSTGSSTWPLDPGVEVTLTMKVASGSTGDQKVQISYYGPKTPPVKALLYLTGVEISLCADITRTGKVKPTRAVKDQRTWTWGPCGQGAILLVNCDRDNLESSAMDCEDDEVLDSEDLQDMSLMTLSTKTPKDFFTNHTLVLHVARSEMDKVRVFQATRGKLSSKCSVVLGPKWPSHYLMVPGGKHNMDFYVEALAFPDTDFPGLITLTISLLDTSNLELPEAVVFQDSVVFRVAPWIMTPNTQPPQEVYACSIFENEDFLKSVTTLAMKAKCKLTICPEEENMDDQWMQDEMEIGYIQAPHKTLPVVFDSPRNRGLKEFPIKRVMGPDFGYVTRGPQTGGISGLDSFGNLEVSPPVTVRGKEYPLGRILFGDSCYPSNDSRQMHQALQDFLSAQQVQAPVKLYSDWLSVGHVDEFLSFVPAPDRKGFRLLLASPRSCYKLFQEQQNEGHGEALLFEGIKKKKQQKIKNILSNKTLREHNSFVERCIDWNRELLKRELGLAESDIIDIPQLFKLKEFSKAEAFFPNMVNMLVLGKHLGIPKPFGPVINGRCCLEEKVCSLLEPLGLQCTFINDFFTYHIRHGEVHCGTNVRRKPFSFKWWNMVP

SMILES | IC50 [1] | IC50 [2]
CCNC(=O)N1CCC(c2cccc3cc(-c4nc5cc(C(=O)N6C[C@H]7CC[C@@H]6[C@@H]7N)cc(OC)c5n4C)n(CC4CC4)c23)CC1 [Example 250, 4-(2-(5-((1R,4R,7R)-7-amino-2-azabicyclo[2.2.1]heptane-2-carbonyl)-7-methoxy-1-methyl-1H-benzo[d]imidazol-2-yl)-1-(cyclopropylmethyl)-1H-indol-7-yl)-N-ethylpiperidine-1-carboxamide] | 0.008 µM | –
COc1cc(C(=O)N2C[C@H]3CC[C@@H]2[C@@H]3N)cc2nc(-c3cc4cccc(C5CCN(C(N)=O)CC5)c4n3CC3CC3)n(C)c12 [Example 251, 4-(2-(5-((1R,4R,7R)-7-amino-2-azabicyclo[2.2.1]heptane-2-carbonyl)-7-methoxy-1-methyl-1H-benzo[d]imidazol-2-yl)-1-(cyclopropylmethyl)-1H-indol-7-yl)piperidine-1-carboxamide] | 0.02 µM | –
COc1cc(C(=O)N2C[C@H]3CC[C@@H]2[C@@H]3N)cc2nc(-c3cc4cccc(C5CCN(C(=O)NC(C)C)CC5)c4n3CC3CC3)n(C)c12 [Example 252, 4-(2-(5-((1R,4R,7R)-7-amino-2-azabicyclo[2.2.1]heptane-2-carbonyl)-7-methoxy-1-methyl-1H-benzo[d]imidazol-2-yl)-1-(cyclopropylmethyl)-1H-indol-7-yl)-N-isopropylpiperidine-1-carboxamide] | 0.058 µM | –
COc1cc(C(=O)N2C[C@H]3CC[C@@H]2[C@@H]3N)cc2nc(-c3cc4cccc(Nc5ccccc5CO)c4n3CC3CC3)n(C)c12 [compound 182, ((1R,4R,7R)-7-amino-2-azabicyclo[2.2.1]heptan-2-yl)(2-(1-(cyclopropylmethyl)-7-((2-(hydroxymethyl)phenyl)amino)-1H-indol-2 yl)-7-methoxy-1-methyl-1H-benzo[d]imidazol-5-yl)methanone] | – | 0.191 µM
COc1cc(C(=O)N2C[C@H]3CC[C@@H]2[C@@H]3N)cc2nc(-c3cc4cccc(-c5ccccc5)c4n3CC3CC3)n(C)c12 [compound 186] | – | 0.299 µM
